Measurements reported in ChEMBL document CHEMBL5579878, “Allosteric Activation of Protein Phosphatase 5 with Small Molecules” (J Med Chem, 2024).

Columns and labels:
[1] = target: T1, Serine/threonine-protein phosphatase 5 (Homo sapiens) (UniProt P53041); experiment: Activation of His-tagged human PP5 extracted from Escherichia coli BL21 using pNPP as substrate assessed as fold increase in phosphatase activity at 50 uM incubated for 30 mins by spectrophotometric analysis
T1 sequence (whole entry): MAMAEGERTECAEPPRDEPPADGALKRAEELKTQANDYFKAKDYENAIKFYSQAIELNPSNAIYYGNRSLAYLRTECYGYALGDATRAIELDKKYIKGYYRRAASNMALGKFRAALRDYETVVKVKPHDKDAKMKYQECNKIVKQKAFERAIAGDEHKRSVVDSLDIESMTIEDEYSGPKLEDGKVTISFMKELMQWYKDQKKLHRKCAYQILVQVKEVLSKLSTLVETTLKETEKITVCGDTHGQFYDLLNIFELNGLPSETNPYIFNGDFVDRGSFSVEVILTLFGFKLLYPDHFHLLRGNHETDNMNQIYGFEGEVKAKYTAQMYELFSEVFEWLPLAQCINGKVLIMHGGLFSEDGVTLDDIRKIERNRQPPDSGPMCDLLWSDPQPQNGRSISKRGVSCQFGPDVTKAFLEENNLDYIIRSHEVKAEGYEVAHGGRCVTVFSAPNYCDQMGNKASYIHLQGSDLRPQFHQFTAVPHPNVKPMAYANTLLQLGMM

[2] = target: T1, Serine/threonine-protein phosphatase 5 (Homo sapiens); experiment: Activation of His-tagged human PP5 extracted from Escherichia coli BL21 using pNPP as substrate assessed as fold increase in phosphatase activity at 200 uM incubated for 30 mins by spectrophotometric analysis; settings: filed as activator
[3] = target: T1, Serine/threonine-protein phosphatase 5 (Homo sapiens); experiment: Activation of His-tagged human PP5 extracted from Escherichia coli BL21 using pNPP as substrate assessed as increase in phosphatase activity incubated for 30 mins by spectrophotometric analysis; settings: filed as activator
[4] = tested on: HCT-116; experiment: Heat shock toxicity in human HCT-116 cells assessed as increase in HSP27 mRNA expression at 10 to 100 nM incubated for 24 hrs by qRT-PCR analysis; type: cell-based; settings: hct-116, 24 h, 0.1 µM, dose 10-100 nM
[5] = tested on: HCT-116; experiment: Heat shock toxicity in human HCT-116 cells assessed as increase in HSP40 mRNA expression at 10 to 100 nM incubated for 24 hrs by qRT-PCR analysis; type: cell-based; settings: hct-116, 24 h, 0.1 µM, dose 10-100 nM
[6] = Toxicity in BALB/c nude mouse xenografted with human HCT-116 cells assessed as body weight loss at 20 mg/kg, ip administered every other day for 14 days; type: organism-based; settings: in vivo, 336 h, time 14 day
[7] = tested on: HCT-116; experiment: Heat shock toxicity in human HCT-116 cells assessed as increase in HSP70 protein expression at 3 to 100 nM incubated for 24 hrs by Western blot analysis; type: cell-based; settings: hct-116, 24 h, 0.1 µM, dose 3-100 nM
[8] = tested on: SW-620; experiment: Antiproliferative activity against human SW620 cells assessed as inhibition of cell proliferation incubated for 72 hrs by CCK8 assay; type: functional, cell-based; settings: SW-620, 72 h
[9] = tested on: HCT-116; experiment: Antiproliferative activity against human HCT-116 cells assessed as inhibition of cell proliferation incubated for 72 hrs by CCK8 assay; type: functional, cell-based; settings: HCT-116, 72 h
[10] = tested on: HCT-116; experiment: Heat shock toxicity in human HCT-116 cells assessed as increase in HSP40 protein expression at 3 to 100 nM incubated for 24 hrs by Western blot analysis; type: cell-based; settings: hct-116, 24 h, 0.1 µM, dose 3-100 nM
[11] = tested on: HCT-116; experiment: Heat shock toxicity in human HCT-116 cells assessed as increase in HSP70 mRNA expression at 10 to 100 nM incubated for 24 hrs by qRT-PCR analysis; type: cell-based; settings: hct-116, 24 h, 0.1 µM, dose 10-100 nM
[12] = tested on: HCT-116; experiment: Heat shock toxicity in human HCT-116 cells assessed as increase in HSP27 protein expression at 3 to 100 nM incubated for 24 hrs by Western blot analysis; type: cell-based; settings: hct-116, 24 h, 0.1 µM, dose 3-100 nM
[13] = target: T1, Serine/threonine-protein phosphatase 5 (Homo sapiens); experiment: Activation of His-tagged human PP5 extracted from Escherichia coli BL21 using pNPP as substrate assessed as fold change in maximum activation upto 300 uM incubated for 30 mins by spectrophotometric analysis; settings: filed as activator
[14] = target: T2, Serine/threonine-protein phosphatase 5 (Homo sapiens, UniProt P53041); experiment: Inhibition of DDO-3733 preincubated human PP5 phosphatase domain extracted from Escherichia coli BL21 using pNPP as substrate incubated for 30 mins by spectrophotometric analysis
T2 sequence (P53041 whole entry): T1 sequence (whole entry)

[15] = target: T2, Serine/threonine-protein phosphatase 5; experiment: Inhibition of human PP5 phosphatase domain extracted from Escherichia coli BL21 using pNPP as substrate incubated for 30 mins by spectrophotometric analysis

| Compound | fold change (FC) ([1]; filed as activator) | fold change (FC) [1] | also measured |
| --- | --- | --- | --- |
| N=c1oc2c(Br)cc(Br)cc2cc1C(N)=S | 2.6 | – | – |
| COc1cc(Br)cc2cc(C(N)=S)c(=N)oc12 | 2.1 | – | – |
| COc1cccc2oc(=N)c(C(N)=S)cc12 | – | < 1.5 | – |
| NC(=S)C1=Cc2cc(F)cc(F)c2OC1N (stereo not drawn) | 1.8 | – | – |
| N=c1oc2ccc(F)cc2cc1C(N)=S | – | < 1.5 | – |
| CO/N=c1/oc2c(F)cc(F)cc2cc1C(N)=S | – | < 1.5 | – |
| N=c1oc2c(Cl)cc(Cl)cc2cc1C(N)=S | – | < 1.5 | – |
| CC(C)c1cc(C(=O)N2Cc3ccc(CN4CCN(C)CC4)cc3C2)c(O)cc1O [ONALESPIB] | – | – | Activity [4]: Toxic; Activity [5]: Toxic; Activity [6]: Non-Toxic; Activity [7]: Toxic; IC50 [8]: 0.122 µM; IC50 [9]: 0.0785 µM; Activity [10]: Toxic; Activity [11]: Toxic; Activity [12]: Toxic |
| COc1ccc2cc(C(N)=S)c(=N)oc2c1 | 1.6 | – | – |
| N=c1oc2cccc(Br)c2cc1C(N)=S | – | < 1.5 | – |
| N=c1oc2cc(Br)ccc2cc1C(N)=S | 2.1 | – | fold change (FC) [13]: 4; Activity [3]: Dose-Dependent Effect |
| N=c1oc2cc(F)cc(F)c2cc1C(N)=O | – | < 1.5 | – |
| N=c1oc2c(F)ccc(F)c2cc1C(N)=S | 1.8 | – | – |
| N=c1oc2c(F)cc(F)cc2cc1C(=S)NC=O | 2.1 | – | – |
| N=c1oc2ccccc2cc1C(N)=S | 1.8 | – | – |
| N=c1oc2ccc3ccccc3c2cc1C(N)=S | 1.6 | – | – |
| CN1CCN(C(=O)C2C(C(=O)O)[C@H]3CC[C@@H]2O3)CC1 (stereo partly drawn) [LB-100] | – | – | IC50 [14]: 21.1 µM; IC50 [15]: 22.1 µM |
| N=c1oc2c(F)cc(F)cc2cc1C(N)=S | 2.1 | – | – |

Further lines, with some results ahead:

| fold change (FC) ([1]; filed as activator) | fold change (FC) [1] | Compound | also measured |
| --- | --- | --- | --- |
| 1.9 | – | COc1ccc2oc(=N)c(C(N)=S)cc2c1 | fold change (FC) [2]: 3.4; Activity [3]: Dose-Dependent Effect |
| – | < 1.5 | COc1cccc2cc(C(N)=S)c(=N)oc12 | – |
| 1.7 | – | N=c1oc2cc(F)ccc2cc1C(N)=S | – |
| – | < 1.5 | N=c1oc2c(F)cc(F)cc2cc1C(N)=O | – |
| 1.7 | – | N=c1oc2cc(F)c(F)cc2cc1C(N)=S | – |
| 2.4 | – | N=c1oc2cc(O)ccc2cc1C(N)=S | – |
| – | < 1.5 | N=c1oc2cc([N+](=O)[O-])ccc2cc1C(N)=S | – |
| 1.6 | – | Cc1ccc2oc(=N)c(C(N)=S)cc2c1 | – |
| – | < 1.5 | N=c1oc2c(F)cccc2cc1C(N)=S | – |
| – | < 1.5 | C/N=c1/oc2c(F)cc(F)cc2cc1C(N)=S | – |
| 1.9 | – | N=c1oc2ccc(O)cc2cc1C(N)=S | – |
| 1.6 | – | N=c1oc2cccc(F)c2cc1C(N)=S | – |
